Data reported in US11053204B2, “Pyrimidinyloxy benzene derivatives as herbicides” (FMC Corporation, priority 2015, dated 2021).

Experiments:
Type in all cases: in vivo
[1] = system: rice (Oryza sativa); assay: Test B flooded paddy test, plant response rating; conditions: 250 g ai/ha; Flood; scale of 0 to 100 where 0 is no effect and 100 is complete control; 13 to 15 days
Outline: (§1)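 Flooded 3 cm over soil; compound into paddy water; depth kept constant. Greenhouse 13–15 d.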

[2] = system: barnyardgrass (Echinochloa crus-galli); assay: Test B flooded paddy test, plant response rating; conditions: 250 g ai/ha; Flood; scale of 0 to 100 where 0 is no effect and 100 is complete control; 13 to 15 days
Outline: as §1

[3] = system: sedge, umbrella (small-flower umbrella sedge, Cyperus difformis); assay: Test B flooded paddy test, plant response rating; conditions: 250 g ai/ha; Flood; scale of 0 to 100 where 0 is no effect and 100 is complete control; 13 to 15 days
Outline: as §1

[4] = system: ducksalad (Heteranthera limosa); assay: Test B flooded paddy test, plant response rating; conditions: 250 g ai/ha; Flood; scale of 0 to 100 where 0 is no effect and 100 is complete control; 13 to 15 days
Outline: as §1

[5] = system: blackgrass (Alopecurus myosuroides); assay: Test A postemergence, visual injury rating; conditions: 0 is no effect, 100 is complete control; for Blackgrass plant response rating: 125 g ai/ha, 0 to 100 scale, approximately 10 days; for Blackgrass plant response rating (0 to 100 scale): 500 g ai/ha
Outline: (§2)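 Greenhouse pot test, loam/sand soil. Formulation: non-phytotoxic solvent mix plus surfactant. Pre: directed spray onto soil after sowing. Post: plants at 1–2 leaf, 2–10 cm. Rated visually vs untreated controls at ~10 d, 0 (no effect) to 100 (complete control).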

[6] = system: galium (catchweed bedstraw, Galium aparine); assay: Test A postemergence, visual injury rating; conditions: 0 is no effect, 100 is complete control; for Galium plant response rating: 125 g ai/ha, 0 to 100 scale, approximately 10 days; for Galium plant response rating (0 to 100 scale): 500 g ai/ha
Outline: as §2

[7] = system: wheat (Triticum aestivum); assay: Test A postemergence, visual injury rating; conditions: 0 is no effect, 100 is complete control; for Wheat plant response rating: 125 g ai/ha, 0 to 100 scale, approximately 10 days; for Wheat plant response rating (0 to 100 scale): 500 g ai/ha
Outline: as §2

[8] = system: ragweed (common ragweed, Ambrosia elatior); assay: Test A postemergence, visual injury rating; conditions: 0 is no effect, 100 is complete control; for Ragweed plant response rating: 125 g ai/ha, 0 to 100 scale, approximately 10 days; for Ragweed plant response rating (0 to 100 scale): 500 g ai/ha
Outline: as §2

[9] = system: Italian ryegrass (Lolium multiflorum); assay: Test A postemergence, visual injury rating; conditions: 0 is no effect, 100 is complete control; for Ryegrass, Italian plant response rating: 125 g ai/ha, 0 to 100 scale, approximately 10 days; for Ryegrass, Italian plant response rating (0 to 100 scale): 500 g ai/ha
Outline: as §2

[10] = system: corn (Zea mays); assay: Test A postemergence, visual injury rating; conditions: 0 is no effect, 100 is complete control; for Corn plant response rating: 125 g ai/ha, 0 to 100 scale, approximately 10 days; for Corn plant response rating (0 to 100 scale): 500 g ai/ha
Outline: as §2

[11] = system: barnyardgrass (Echinochloa crus-galli); assay: Test A postemergence, visual injury rating; conditions: 0 is no effect, 100 is complete control; for Barnyardgrass plant response rating: 125 g ai/ha, 0 to 100 scale, approximately 10 days; for Barnyardgrass plant response rating (0 to 100 scale): 500 g ai/ha
Outline: as §2

[12] = system: kochia (Kochia scoparia); assay: Test A postemergence, visual injury rating; conditions: 0 is no effect, 100 is complete control; for Kochia plant response rating: 125 g ai/ha, 0 to 100 scale, approximately 10 days; for Kochia plant response rating (0 to 100 scale): 500 g ai/ha
Outline: as §2

[13] = system: pigweed (Amaranthus retroflexus); assay: Test A postemergence, visual injury rating; conditions: 0 is no effect, 100 is complete control; for Pigweed plant response rating: 125 g ai/ha, 0 to 100 scale, approximately 10 days; for Pigweed plant response rating (0 to 100 scale): 500 g ai/ha
Outline: as §2

[14] = system: giant foxtail (Setaria faberii); assay: Test A postemergence, visual injury rating; conditions: 0 is no effect, 100 is complete control; for Foxtail, Giant plant response rating: 125 g ai/ha, 0 to 100 scale, approximately 10 days; for Foxtail, Giant plant response rating (0 to 100 scale): 500 g ai/ha
Outline: as §2

[15] = system: ragweed (common ragweed, Ambrosia elatior); assay: Test A preemergence, visual injury rating; conditions: 0 to 100 scale (0 no effect, 100 complete control)
Outline: as §2

[16] = system: Italian ryegrass (Lolium multiflorum); assay: Test A preemergence, visual injury rating; conditions: 0 to 100 scale (0 no effect, 100 complete control)
Outline: as §2

[17] = system: barnyardgrass (Echinochloa crus-galli); assay: Test A preemergence, visual injury rating; conditions: 0 to 100 scale (0 no effect, 100 complete control)
Outline: as §2

[18] = system: kochia (Kochia scoparia); assay: Test A preemergence, visual injury rating; conditions: 0 to 100 scale (0 no effect, 100 complete control)
Outline: as §2

[19] = system: pigweed (Amaranthus retroflexus); assay: Test A preemergence, visual injury rating; conditions: 0 to 100 scale (0 no effect, 100 complete control)
Outline: as §2

[20] = system: giant foxtail (Setaria faberii); assay: Test A preemergence, visual injury rating; conditions: 0 to 100 scale (0 no effect, 100 complete control)
Outline: as §2

Structure (SMILES)	Plant response rating, Rice [1]	Plant response rating, Barnyardgrass [2]	Plant response rating, Sedge, Umbrella [3]	Plant response rating, Ducksalad [4]	Blackgrass plant response rating [5]	Blackgrass plant response rating (0 to 100 scale) [5]	Galium plant response rating [6]	Galium plant response rating (0 to 100 scale) [6]	Wheat plant response rating [7]	Wheat plant response rating (0 to 100 scale) [7]	Ragweed plant response rating [8]	Ragweed plant response rating (0 to 100 scale) [8]	Ryegrass, Italian plant response rating [9]	Ryegrass, Italian plant response rating (0 to 100 scale) [9]	Corn plant response rating [10]	Corn plant response rating (0 to 100 scale) [10]	Barnyardgrass plant response rating [11]	Barnyardgrass plant response rating (0 to 100 scale) [11]	Kochia plant response rating [12]	Kochia plant response rating (0 to 100 scale) [12]	further results
CCSC(=O)c1c(Br)cccc1Oc1ncc(Cl)cn1 [Compound 83]	0	0	80	80	0	40	30	20	0	0	0	0	0	0	20	30	0	90	30	90	Pigweed plant response rating [13]: 30; Pigweed plant response rating (0 to 100 scale) [13]: 70; Foxtail, Giant plant response rating [14]: 0; Foxtail, Giant plant response rating (0 to 100 scale) [14]: 80; Ragweed plant response rating ([15]; 125 g ai/ha): 0; Ragweed plant response rating ([15]; 500 g ai/ha): 0; Ryegrass, Italian plant response rating ([16]; 125 g ai/ha): 0; Ryegrass, Italian plant response rating ([16]; 500 g ai/ha): 0; Barnyardgrass plant response rating ([17]; 125 g ai/ha): 30; Barnyardgrass plant response rating ([17]; 500 g ai/ha): 90; Kochia plant response rating ([18]; 125 g ai/ha): 0; Kochia plant response rating ([18]; 500 g ai/ha): 0; Pigweed plant response rating ([19]; 125 g ai/ha): 30; Pigweed plant response rating ([19]; 500 g ai/ha): 90; Foxtail, Giant plant response rating ([20]; 125 g ai/ha): 90; Foxtail, Giant plant response rating ([20]; 500 g ai/ha): 100
CCC(C)OC(=O)c1c(Br)cccc1Oc1ncc(Cl)cn1 (stereo not drawn) [Compound 84]	0	0	0	0	0	0	30	40	0	20	0	0	0	0	10	40	0	40	30	70	Pigweed plant response rating [13]: 30; Pigweed plant response rating (0 to 100 scale) [13]: 70; Foxtail, Giant plant response rating [14]: 0; Foxtail, Giant plant response rating (0 to 100 scale) [14]: 60; Ragweed plant response rating ([15]; 125 g ai/ha): 0; Ragweed plant response rating ([15]; 500 g ai/ha): 0; Ryegrass, Italian plant response rating ([16]; 125 g ai/ha): 0; Ryegrass, Italian plant response rating ([16]; 500 g ai/ha): 0; Barnyardgrass plant response rating ([17]; 125 g ai/ha): 0; Barnyardgrass plant response rating ([17]; 500 g ai/ha): 90; Kochia plant response rating ([18]; 125 g ai/ha): 0; Kochia plant response rating ([18]; 500 g ai/ha): 0; Pigweed plant response rating ([19]; 125 g ai/ha): 0; Pigweed plant response rating ([19]; 500 g ai/ha): 100; Foxtail, Giant plant response rating ([20]; 125 g ai/ha): 0; Foxtail, Giant plant response rating ([20]; 500 g ai/ha): 100
